In patent US11851459B2, “Methods and uses of modulators of anaphase promoting complex (APC) activity for treating cancer” (University of Saskatchewan, priority 2018, dated 2023):

Tests used:
[1] = test system: apc5 temperature sensitive mutant and/or apc10Δ mutant; test: Viability of APC mutant yeast (spot dilution); type: cell-based
From the text: Suitable APC activators also include APC activators that increase the cell viability of an wild-type and/or an APC mutant cell by at least 10%, at least 20%, at least 30%, at least 40%, at least 50%, at least 60%, at least 70% or at least 80% compared to a cell with wild-type APC function. […] Examples of yeast cells with defective APC function include apc5 and apc10 mutants. An example of an apc5 mutant is the apc5 temperature sensitive mutant described herein. An example of an apc10 mutant is the apc10 deletion mutant described herein. Viability of a yeast mutant can be measured for example, by the spot dilution assays described herein or any other method known in the art.
The reverse genetic screen utilized a yeast 2-hybrid (Y2H) protocol that selected for peptides that bound to the APC subunits Apc5 or Apc10 (see FIG. 8 for APC structure), to assess whether peptide-binding might modify APC function. Peptides that bound APC subunits were then assayed for those that suppressed APC mutant defects.
Over 100 peptides that bound either Apc5 or Apc10 were recovered from millions screened. Six peptides that reproducibly interacted with the Apc5 or Apc10 bait construct in Y2H assays were examined further. Vectors expressing these 6 peptides were transformed into WT or APC mutant cells and assessed for ts growth.

apc10Δ cells = test: apc10Δ temperature sensitive growth, spot dilutions; type: cell-based, yeast; conditions: 30 and 34° C., weakly expressed on glucose
From the text: A. Yeast 2-hybrid (Y2H) cells expressing the APC subunit bait and the galactose inducible Apc10 peptide prey grown on glucose or galactose. Cells co-expressing the Apc5 or Apc10-bait and Apc10 aptamer-prey vectors were spotted onto the appropriate media, in the presence or absence of galactose (the aptamers are Gal inducible), to confirm Y2H interactions. Growth on trp^− his^− media ensures both plasmids are maintained. A Y2H interaction will drive expression of the ADE2 gene, allowing growth on ade^− media. B. Aptamers that bind Apc10 can suppress APC mutant phenotypes. Spot dilutions of apc10Δ cells expressing an empty vector control or the one of 6 Apc10 aptamers tested. Log phase cells were 10-fold serially diluted and spotted onto plates containing either 2% glucose or 2% galactose. The plates were then incubated at 30° C. (permissive temperature) and 34° C. (restrictive stress). C. Peptides identified as binding to the yeast Apc10 APC subunit using the Y2H screen increase growth of wildtype (WT) cells. […]
The six peptide expressing vectors were transformed into apc10Δ cells and assessed for temperature sensitive growth. […]
Over 100 peptides that bound either Apc5 or Apc10 were recovered from millions screened. […] Vectors expressing these 6 peptides were transformed into WT or APC mutant cells and assessed for ts growth.

WT cells = test: Stationary phase WT cells spot diluted (chronological lifespan / stress resistance); type: cell-based, yeast; conditions: FIG. 2B; for stress resistance: WT cells grown to stationary phase, spot diluted; for chronological lifespan: WT cells
Protocol: A. apc5^CA (temperature sensitive allele) cells were transformed with C43-4 or an empty vector. Cells grown overnight in 2% Glu were struck onto 2% Glucose plates and used for the yeast RLS assay. From the top left hand corner of the figures, top line is WT +empty vector, middle line is apc5^CA+C43-4 peptide and bottom line is apc5^CA+empty vector. B. WT cells transformed with C43-4, C2-4B or an empty vector were grown to stationary phase in 2% Glu media, then after 2 days spot diluted onto 2% Glu or 2% Gal to induce expression of the peptides.

[2] = test system: APC (substrates Cyclin B, Securin, Cdc20, HURP); test: APC substrate westerns in MDA-MB-231 cells expressing peptides; type: cell-based, human
Protocol: A. Transient transfection of the C43-4 peptide plasmid into human triple negative MDA-MB-231 breast cancer cells followed by Western blot analysis of lysates against Cyclin B, Securin and Cdc20 showing enhanced protein loss. B. Cells in A were treated with DOX (1 uM) for 48 hrs with cell viability measured using an MTT assay kit. The experiment was done in triplicate with standard error of the means shown.
A. Stable integration of C43-4 in MDA-MB-231 cells was established by selection of transfected cells on Geneticin for 7 days. Westerns against APC substrates show APC activation. B. Cells in A were treated with DOX (1 uM) for 48 hrs with cell viability measured using an MTT assay kit. Mean and SEM of 3 biological repeats.
A. TNBC MDA-MB-231 cells stably expressing APC binding peptides activate the APC. Cells were grown to confluence and then used to prepare protein lysates. The lysates were used to measure levels of the APC substrate CDC20, which will be reduced if the APC is activated. Cells stably expressing the pcDNA empty vector were used as a control. B. In a similar experiment, MDA-MB-231 cells stably expressing the APC binding peptides shown, or the empty vector control, were used to measure protein levels of the APC substrate HURP using Westerns. C. Triplicate blots as in B were scanned, normalized to tubulin and plotted. Error of the mean is shown. Significant changes are indicated. D. MDA-MB-231 cells stably expressing the empty pcDNA vector, or the C43-4 and C13-3 APC binding peptides, were treated with 1 μM Doxorubicin for 24 hrs. Cell viability was measured using an MTT viability assay.
The C43-4 peptide sequence was cloned into the human expression vector pcDNA. This construct was transiently, and stably, expressed in human breast cancer cell line MDA-MB-231. […] In 231 cells, which are triple negative, aggressive and somewhat resistant to Doxorubicin, the transiently and stably transfected C43-4 peptide resensitized them to DOX treatment (FIGS. 22B and 23B).
In FIG. 26B, MDA-MB-231 cells were also stably transfected with the peptides C1-8, C2-4B, C3-1B, and C9-5. Levels of the APC substrate HURP were measured in lysates prepared from these cells. […] The empty vector pcDNA was also stably expressed in 231 cells and used as a control.

[3] = transiently transfected MDA-MB-231

| Sequence | viability of an APC mutant [1] | apc10Δ growth phenotype (apc10Δ cells) | stress resistance (WT cells) | chronological lifespan (WT cells) | levels of the APC substrate CDC20 ([2]; MDA-MB-231 stably expressing peptides) | protein levels of CyclinB ([2]; stably transfected MDA-MB-231) | APC substrate Cdc20 [2, 3] | APC substrate Cyclin B [2, 3] | APC substrate Securin [2, 3] | levels of the APC substrate HURP ([2]; MDA-MB-231 stably transfected, normalized to tubulin) |
| --- | --- | --- | --- | --- | --- | --- | --- | --- | --- | --- |
| NGSSHNDLRVRRLTLISRLC [C43-4] | increases the viability | suppressed the apc10Δ growth phenotype | increase stress resistance | improved chronological lifespan | reduce levels | reduced protein levels | reduced | reduced | reduced |  |
| RMPQWWQWMWV [C2-4B] | increases the viability of an APC mutant | suppressed the apc10Δ growth phenotype | increase stress resistance | improved chronological lifespan |  |  |  |  |  | Only C1-8 did not reduce HURP levels |
